Patent US8460669B2, “Compositions and methods for identifying response targets and treating flavivirus infection responses” (Academia Sinica, priority 2005, dated 2013)

What was measured:
[1] = molecular target: T1, DVLR1/CLEC5A (Homo sapiens, UniProt Q9NY25); assay: Sugar competition, biotinylated DV binding to DVLR1/CLEC5A-transfected 293T cells; type: cell-based; conditions: flow cytometry
T1 construct: expressed in transfected cells; host or cells: 293T cells
T1 sequence (Q9NY25 1-187 isoform Q9NY25-2): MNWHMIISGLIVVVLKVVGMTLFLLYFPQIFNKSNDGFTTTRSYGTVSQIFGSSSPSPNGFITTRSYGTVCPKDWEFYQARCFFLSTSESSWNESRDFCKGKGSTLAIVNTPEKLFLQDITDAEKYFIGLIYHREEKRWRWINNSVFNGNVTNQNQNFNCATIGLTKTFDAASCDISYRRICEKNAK
Procedure: In FIG. 16b, complexes of DV (5×10^6 PFU) with receptor.Fc (5 μg) were immunoprecipitated and detected on westerns with mAb to DV envelope (E) protein. […] FIGS. 16d and 16e show sugar competition assays wherein both DC-SIGN (CLEC4L) and DVLR1/CLEC5A increase DV binding to human 293T cells (FIG. 16d), while addition of sugars inhibits biotinylated DV binding to DC-SIGN- (left panel) or DLVR1/CLEC5A- (right panel) transfected 293T cells in a dose-dependent manner as determined by flow cytometry (FIG. 16e). According to FIG. 16e, MFI represents mean fluorescence intensity. Units (U) for monosaccharide (mannose and fucose) and polysaccharide (mannan) are mM and mg/ml, respectively. […] Data are expressed as the mean±s.d. of three independent experiments. Two-tailed, Student's t-tests were performed.
There are two conserved N-linked glycosylation sites at Asn-67 and Asn-153 of E protein (Pokidysheva, E. et al., Cell 124:485-93 (2006)), and the attached glycans (with terminal fucose and mannose) have been implicated in cellular attachment and viral entry (Modis, Y. et al., J. Virol. 79:1223-1231 (2005)). To investigate the participation of glycans in the association of DVLR1/CLEC5A with DV, virions were incubated with fucose, mannose, or mannan; where the last two sugars are the ligands for DC-SIGN (Mitchell et al., J. Biol. Chem. 276: 28939-28945 ([…])).

[2] = molecular target: T2, DC-SIGN (Homo sapiens, UniProt Q9NNX6); assay: Sugar competition EIA, Fc.DC-SIGN binding to GLPS-F3; conditions: sugar 1 mg/ml
T2 construct: The extracellular domains of lectin receptors, TREMs and TLTs were cloned by the reverse-transcriptase polymerase chain reaction (RT-PCR); made in house; host or cells: 293-F (FreeStyle 293) cells
T2 sequence (Q9NNX6 59-404 limits assumed): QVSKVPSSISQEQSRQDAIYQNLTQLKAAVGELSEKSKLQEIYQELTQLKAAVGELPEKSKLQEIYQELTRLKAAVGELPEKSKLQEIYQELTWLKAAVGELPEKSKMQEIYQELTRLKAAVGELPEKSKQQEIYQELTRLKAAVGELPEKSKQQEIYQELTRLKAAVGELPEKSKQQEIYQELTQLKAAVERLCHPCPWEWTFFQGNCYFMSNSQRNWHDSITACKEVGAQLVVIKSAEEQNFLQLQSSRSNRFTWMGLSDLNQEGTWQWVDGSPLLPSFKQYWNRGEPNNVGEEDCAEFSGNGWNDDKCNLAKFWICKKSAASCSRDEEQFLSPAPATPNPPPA
Procedure: The interaction between GLPS-F3 and receptor.Fc was then tested. Unbiotinylated GLPS-F3 was immobilized at 100 ng/well as described above, and 100 μL receptor.Fc fusion protein (1 μg/ml in 2 mM MgCl2/2 mM CaCl2/1% BSA/TBST) was added into each well and incubated for 1 hour at room temperature. After washing with TBST, wells were incubated with peroxidase-conjugated goat anti-human IgG Ab (1:5000 dilution, Jackson ImmunoResearch Laboratories) in blocking buffer at room temperature for 30 min. Wells were incubated with 100 μL TMB substrate for 15 min after TBST washing and read at 450 nm in a Fusion plate reader (Perkin Elmer). The results were normalized with respect to Fc.Dectin-1 binding (Dectin-1 is a known lectin receptor that binds to β-1,3-glucan which is the backbone found in GLPS-F3). FIG. 6B depicts in graphical form the affinity of each receptor for GLPS-F3 relative to Dectin-1. […] There was also weaker but positive GLPS-F3 binding ability (25-50% binding intensity compared to Fc.dectin-1) found in Fc.NKG2D, Fc.MINCLE, Fc.mKCR, DCAL1.Fc, DEC205.Fc, Endo180.Fc and NKp30(NCR3).Fc.
To understand the interaction of GLPS-F3 with specific innate immunity receptors, the polysaccharides mannan and β-glucan and the monosaccharides D-mannose (Man), D-glucose (Glc), N-acetyl-glucosamine (GlcNAc), D-galactose (Gal), N-acetyl-galactosamine (GalNAc), L-fucose (Fuc) and sialic acid, were used in a competition assay. […] The assays were carried out as in Example 9, with the addition of 1 mg/ml of each polysaccharide or monosaccharide.

[3] = molecular target: T3, DC-SIGNR.Fc (Homo sapiens, UniProt Q9H2X3); assay: Immunosorbent dot binding assay with DC-SIGNR.Fc; conditions: polysaccharide immobilized on PVDF membrane; receptor.Fc 1 μg/mL
T3 construct: The extracellular domains of lectin receptors, TREMs and TLTs were cloned by the reverse-transcriptase polymerase chain reaction (RT-PCR); made in house; host or cells: 293-F (FreeStyle 293) cells
T3 sequence (Q9H2X3 71-399): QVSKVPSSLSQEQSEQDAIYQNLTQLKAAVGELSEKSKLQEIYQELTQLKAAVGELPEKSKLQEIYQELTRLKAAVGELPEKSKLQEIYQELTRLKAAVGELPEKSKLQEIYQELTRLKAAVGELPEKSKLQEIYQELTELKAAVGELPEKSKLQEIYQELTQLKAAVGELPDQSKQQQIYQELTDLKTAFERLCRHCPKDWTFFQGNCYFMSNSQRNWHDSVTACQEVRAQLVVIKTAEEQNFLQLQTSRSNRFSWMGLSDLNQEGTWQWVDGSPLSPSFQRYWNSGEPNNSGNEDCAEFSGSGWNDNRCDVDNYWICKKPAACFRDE

[4] = molecular target: T4, Dectin-1.Fc (Homo sapiens, UniProt Q9BXN2); assay: Immunosorbent dot binding assay with Dectin-1.Fc
T4 construct: The extracellular domains of lectin receptors, TREMs and TLTs were cloned by the reverse-transcriptase polymerase chain reaction (RT-PCR); made in house; host or cells: 293-F (FreeStyle 293) cells
T4 sequence (Q9BXN2 66-247 limits assumed): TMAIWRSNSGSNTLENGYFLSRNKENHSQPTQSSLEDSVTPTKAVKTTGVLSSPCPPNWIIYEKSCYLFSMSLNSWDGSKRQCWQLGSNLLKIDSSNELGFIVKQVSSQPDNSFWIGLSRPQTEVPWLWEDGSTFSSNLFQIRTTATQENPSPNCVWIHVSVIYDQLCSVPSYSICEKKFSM

Percentage of binding of DC-SIGN Fc fusion to GLPS-F3 relative to binding in absence of sugar competitor [2] [%]	interaction with DC-SIGNR.Fc in dot-binding assay [3]	inhibition of the interaction between Dectin-1.Fc and F3 ([4]; competitor 0.1 μg-1000 μg, or EDTA 10 mM in TBST)	interaction with Dectin-1.Fc in dot-binding assay ([4]; polysaccharide immobilized on PVDF membrane, receptor.Fc 1 μg/mL)	Compound	inhibition of binding of DVLR1/CLEC5A to DV [1]	inhibition of binding of Fc.DC-SIGN to GLPS-F3 [2] [%]
8 ± 1.8				C[C@H](O)[C@@H](O)[C@@H](O)[C@H](O)C=O [Fuc, L-fucose]	significantly reduced	92
81 ± 1.4	only Dectin-1.Fc can bind	inhibited	can bind	β-1,3-glucan [b-glucan]		

Compound	Percentage of binding of DC-SIGN Fc fusion to GLPS-F3 relative to binding in absence of sugar competitor [2] [%]	interaction with DC-SIGNR.Fc in dot-binding assay [3]	inhibition of the interaction between Dectin-1.Fc and F3 ([4]; competitor 0.1 μg-1000 μg, or EDTA 10 mM in TBST)	interaction with Dectin-1.Fc in dot-binding assay ([4]; polysaccharide immobilized on PVDF membrane, receptor.Fc 1 μg/mL)	inhibition of binding of DVLR1/CLEC5A to DV [1]	inhibition of binding of Fc.DC-SIGN to GLPS-F3 [2] [%]
mannan	2 ± 0.5				to a lesser extent	98
